Assay: Inhibitory activity against glycogen phosphorylase, activity expressed as -logKi

Compound	-Log Ki
O=C(N[C@H]1O[C@H](CO)[C@@H](O)[C@H](O)[C@H]1O)c1ccccc1	4.092
OCC1OC(CO)C(O)C(O)C1O (configuration not stated)	2.824
NN1C(=O)N[C@@]2(O[C@@H](CO)[C@@H](O)[C@H](O)[C@@H]2O)C1=O	3.836
CS(=O)(=O)OCC1OC(CO)C(O)C(O)C1O (configuration not stated)	2.319
NCC1OC(CO)C(O)C(O)C1O (stereo in doubt; form 2)	1.775
NCC1OC(CO)C(O)C(O)C1O (stereo in doubt; form 1)	1.462
COC(=O)N[C@]1(C(N)=O)O[C@H](CO)[C@@H](O)[C@H](O)[C@H]1O	4.796

The remaining lines, values ahead:

-Log Ki	Compound
4.357	O=C(CBr)N[C@H]1O[C@@H](CO)[C@@H](O)[C@H](O)[C@@H]1O
4.347	O=C(CCl)N[C@H]1O[C@H](CO)[C@@H](O)[C@H](O)[C@H]1O
3.854	NC(=O)N[C@H]1O[C@H](CO)[C@@H](O)[C@H](O)[C@H]1O
4.495	CC(=O)N[C@H]1O[C@H](CO)[C@@H](O)[C@H](O)[C@H]1O
3.004	CC(=O)NCC(=O)N[C@H]1O[C@H](CO)[C@@H](O)[C@H](O)[C@H]1O
4.409	CCC(=O)N[C@H]1O[C@H](CO)[C@@H](O)[C@H](O)[C@H]1O
4.027	CCCC(=O)N[C@H]1O[C@H](CO)[C@@H](O)[C@H](O)[C@H]1O
3.357	NC(=O)C1OC(CO)C(O)C(O)C1O (configuration not stated)
3.796	CNC(=O)C1OC(CO)C(O)C(O)C1O (configuration not stated)
3.432	NCC(=O)N[C@H]1O[C@@H](CO)[C@@H](O)[C@H](O)[C@@H]1O
